Results: patent US9044421B2, “Treating MUC1-expressing cancers with combination therapies” (GENUS ONCOLOGY, LLC., priority 2012, dated 2015)
pIC50: −log10 of the molar value. Where a SMILES comes first, the peptide text is derived from it. [ ]: non-standard residue; d: D form.

Key:
PI3-kinase = details: different cell types (Folks et al., 2008); cited from earlier work
p-S6K = assay: Immunoblotting of total cell lysates with anti-phospho-S6K; format: cell-based; details: ZR-75-1 cells, combined with GDC-0941 (FIG. 9)
Method: FIG. 9. ZR-75-1 breast carcinoma cells were treated with GO-203-2C and GDC-0941 either alone or in combination. Total cell lysates were prepared and analyzed by immunoblotting with anti-phospho-S6K (top panel) or anti-S6K (bottom panel).

p-AKT = assay: Immunoblotting of total cell lysates with anti-phospho-AKT; format: cell-based; details: ZR-75-1 cells, combined with LY294002 (FIG. 8)
Method: FIG. 8. ZR-75-1 breast carcinoma cells were treated with GO-203-2C and LY294002 either alone or in combination. Total cell lysates were prepared and analyzed by immunoblotting with anti-phospho-AKT (top panel) or anti-AKT (bottom panel).

[1] = tested on: H-1650 non small cell lung carcinoma cells; assay: AlamarBlue cell viability assay, H-1650 cells; format: cell-based
Method: FIG. 1. H-1650 non small cell lung carcinoma cells in a 96-well plate were treated with various concentrations of purified GO-203-2C for four days. AlamarBlue dye was added to the cells on day 5, and the absorbance was measured at 570 and 600 nm. A 4-parameter curve was obtained by plotting the percentage reduction of alamarBlue calculated using these absorbance values against the concentration of GO-203-2C used.
alamarBlue assay involves the usage of a fluorometric/colorimetric growth indicator, alamarBlue based on the metabolic activity of cells. As cells grow, the innate metabolic activity results in a chemical reduction of alamarBlue. Continued growth maintains a reduced environment while inhibition of growth maintains an oxidized environment. Live cells cause the change of alamarBlue from oxidized (non-fluorescent, blue) form to reduced (fluorescent, red) form. Data can be collected using either fluorescence-based or absorbance-based instrumentation. Fluorescence is monitored at 530-560 nm excitation wavelength and at 590 nm emission wavelength. Absorbance is monitored at 570 am and 600 nm.
This assay was developed with a 96-well plate using ZR-75-1 or MCF-7 (breast carcinoma cell lines) or H1650 non-small cell lung carcinoma cells at different cell concentrations and the optimal cell number was calculated to be 5,000 cells/well in […] volume. The cell number/well has to be optimized for each cell type to be tested. ZR-75-1 or MCF-7 cells were treated with various concentrations of GO-203-2c, LY294002 or GDC-0941 with 2-fold serial dilutions to obtain a total of 8 different concentrations. Cells in triplicate wells were treated with each concentration of GO-203-2c every day, for 4 days. […] At the end of each hour, absorbance of the plate was measured at 570 nm and 600 nm as reference. A set of blank wells was maintained with medium alone and medium with alamarBlue for the purpose of calculating actual absorbance. Obtained absorbance values were plotted against respective concentrations of GO-2-3-2c. […]

Row | Structure (SMILES) | pIC50 (PI3-kinase) | effect on p-S6K (p-S6K) | effect on p-AKT (p-AKT) | live cells ([1]; at 10 mM) [%] | percent reduction of alamarBlue ([1]; highest concentration tested (10 mM)) [%] | percent reduction of alamarBlue ([1]; lowest concentration tested (0.078 mM), untreated control 55.34%) [%]
1 | CS(=O)(=O)N1CCN(Cc2cc3nc(-c4cccc5[nH]ncc45)nc(N4CCOCC4)c3s2)CC1 [GDC-0941] | 5.70 to 6.30 |  |  |  |  | 
2 | CC(=O)N[C@H](CCCNC(=N)N)C(=O)N[C@H](CCCNC(=N)N)C(=O)N[C@H](CCCNC(=N)N)C(=O)N[C@H](CCCNC(=N)N)C(=O)N[C@H](CCCNC(=N)N)C(=O)N[C@H](CCCNC(=N)N)C(=O)N[C@H](CCCNC(=N)N)C(=O)N[C@H](CCCNC(=N)N)C(=O)N[C@H](CCCNC(=N)N)C(=O)N[C@H](CS)C(=O)N[C@H](CCC(N)=O)C(=O)N[C@H](CS)C(=O)N[C@H](CCCNC(=N)N)C(=O)N[C@H](CCCNC(=N)N)C(=O)N[C@H](CCCCN)C(=O)N[C@H](CC(N)=O)C(N)=O [GO-203-2C] (Ac-[dR][dR][dR][dR][dR][dR][dR][dR][dR][dC][dQ][dC][dR][dR][dK][dN]-NH2) |  | contributing to the downregulation | contributing to the downregulation | 12.3 | 6.86 | 55.65
